Experimental data published in BigSolDB 2.1.

c1nc[nH]n1
Conditions	solubility (mole fraction)
in ethanol, 283.18 K	0.131
in ethanol, 288.25 K	0.147
in ethanol, 293.21 K	0.164
in ethanol, 298.18 K	0.184
in ethanol, 303.15 K	0.205
in ethanol, 308.14 K	0.228
in ethanol, 313.21 K	0.253
in ethanol, 318.23 K	0.28
in ethanol, 323.22 K	0.308
in ethanol, 328.27 K	0.339
in ethanol, 333.28 K	0.371
in ethyl acetate, 283.21 K	0.0268
in ethyl acetate, 288.29 K	0.032
in ethyl acetate, 293.21 K	0.0365
in ethyl acetate, 298.19 K	0.041
in ethyl acetate, 303.18 K	0.0457
in ethyl acetate, 308.27 K	0.0513
in ethyl acetate, 313.2 K	0.0578
in ethyl acetate, 318.21 K	0.066
in ethyl acetate, 323.16 K	0.0759
in ethyl acetate, 328.17 K	0.0884
in ethyl acetate, 333.27 K	0.104
in ethyl formate, 283.21 K	0.0208
in ethyl formate, 288.23 K	0.0246
in ethyl formate, 293.29 K	0.0286
in ethyl formate, 298.24 K	0.0331
in ethyl formate, 303.26 K	0.0384
in ethyl formate, 308.17 K	0.0446
in ethyl formate, 313.24 K	0.0524
in ethyl formate, 318.27 K	0.0617
in ethyl formate, 323.31 K	0.073
in isopropanol, 283.17 K	0.129
in isopropanol, 288.21 K	0.144
in isopropanol, 293.16 K	0.159
in isopropanol, 298.23 K	0.176
in isopropanol, 303.27 K	0.193
in isopropanol, 308.19 K	0.211
in isopropanol, 313.24 K	0.232
in isopropanol, 318.22 K	0.254
in isopropanol, 323.27 K	0.278
in isopropanol, 328.2 K	0.304
in isopropanol, 333.19 K	0.332
in isopropanol, 338.18 K	0.363
in isopropanol, 343.26 K	0.397
in methyl acetate, 283.27 K	0.0968
in methyl acetate, 288.21 K	0.106
in methyl acetate, 293.19 K	0.117
in methyl acetate, 298.21 K	0.128
in methyl acetate, 303.2 K	0.141
in methyl acetate, 308.29 K	0.155
in methyl acetate, 313.18 K	0.171
in methyl acetate, 318.16 K	0.189
in methyl acetate, 323.24 K	0.21
in n-butyl acetate, 283.2 K	0.0141
in n-butyl acetate, 288.23 K	0.0166
in n-butyl acetate, 293.26 K	0.0202
in n-butyl acetate, 298.22 K	0.024
in n-butyl acetate, 303.24 K	0.0279
in n-butyl acetate, 308.17 K	0.032
in n-butyl acetate, 313.28 K	0.037
in n-butyl acetate, 318.21 K	0.0428
in n-butyl acetate, 323.16 K	0.0498
in n-butyl acetate, 328.24 K	0.0586
in n-butyl acetate, 333.19 K	0.0688
in n-butyl acetate, 338.18 K	0.0809
in n-butyl acetate, 343.23 K	0.0955
in n-butyl acetate, 348.18 K	0.113
in n-butyl acetate, 353.19 K	0.136
in n-butyl acetate, 358.18 K	0.167
in n-butyl acetate, 363.26 K	0.211
in n-propanol, 283.17 K	0.12
in n-propanol, 288.18 K	0.135
in n-propanol, 293.27 K	0.15
in n-propanol, 298.19 K	0.168
in n-propanol, 303.21 K	0.187
in n-propanol, 308.23 K	0.208
in n-propanol, 313.27 K	0.231
in n-propanol, 318.2 K	0.256
in n-propanol, 323.22 K	0.283
in n-propanol, 328.28 K	0.313
in n-propanol, 333.18 K	0.344
in n-propanol, 338.23 K	0.378
in n-propanol, 343.29 K	0.415
in propylene glycol, 283.16 K	0.174
in propylene glycol, 288.27 K	0.212
in propylene glycol, 293.26 K	0.249
in propylene glycol, 298.16 K	0.284
in propylene glycol, 303.19 K	0.319
in propylene glycol, 308.18 K	0.353
in propylene glycol, 313.2 K	0.386
in propylene glycol, 318.28 K	0.419
in propylene glycol, 323.21 K	0.451
in propylene glycol, 328.22 K	0.483
in propylene glycol, 333.23 K	0.514
in propylene glycol, 338.29 K	0.545
in propylene glycol, 343.21 K	0.574
in propylene glycol, 348.23 K	0.604
in propylene glycol, 353.24 K	0.633
